Experimental data reported in US20250084095A1, “Aminopyrimidine Derivatives as Cyclin-Dependent Kinase Inhibitors” (Accutar Biotechnology Inc., priority 2023, published 2025).

What was measured:
[1] = test system: Phospho-Rb (Ser807/811) in SW1573-CDK4 KO cells; test: Phospho-Rb expression inhibition in SW1573-CDK4 KO cells quantified by in cell Western; assay type: cell-based; conditions: Homo sapiens, 24 hours, read-out: SW1573 CDK4 KO pRb IC50
Procedure: (§1) Parental SW1573 cells were obtained from the American Type Culture Collection (ATCC). CDK4 or CDK6 gene in […] cells was knocked out using the CRISPR-Cas9 technology. First, gRNA complex of CDK4 or CDK6 was prepared with Alt-R CRISPR-Cas9 tracrRNA and crRNA CDK4 (5′-[…]-3′ (SEQ ID NO: 4)) or CDK6 (5′-[…]-3′ (SEQ ID NO. 5)) (IDT-Integrated DNA Technologies), and then ribonucleoprotein (RNP) complex of CDK4 or CDK6 was prepared with respective gRNA complex and Alt-R S.p. Cas9 Nuclease V3 (IDT-Integrated DNA Technologies). Next, 5×10^4/10 μL SWJ1573 cells were electroporated with the CDK4 or CDK6 RNP complex and Alt-R Cas9 Electroporation Enhancer using Neon Transfection System (Thermo Fisher). Cells were then plated in a 96-well plate to select single clones for validation of CDK4 or CDK6 knockout by western blot analysis.
(§2) MCF7 cells were obtained from American Type Culture Collection (ATCC, HTB-22). SW1573-CDK6 KO and SW1573-CDK4 KO cells were generated by the CRISPR-Cas9 technology. All cells were plated in 96-well plates (VWR #10062-900, or Corning #3904) in 90 uL culture medium at a density of 20,000 cells/well in the respective growth medium containing 10% FBS and 1% Penicillin Streptomycin, and then incubated at 37° C. overnight. The following day, the test compound was administered to the cells by using 1000× compound stock solution prepared in DMSO at various concentrations. 1000× compound stock solution was first diluted in culturing medium to 10×, then 10 uL compound medium was added to each well in the cell plates. After administration of the compound, the cells were then incubated at 37° C. for 24 hours. Upon completion, the cells were washed with PBS briefly. 150 uL/well of 4% formaldehyde was added and the plates were incubated at room temperature for 20 mins. The cells were washed with PBS briefly, and permeabilized with 150 uL/well of ice cold 100% methanol for 10 mins. The cells were washed with PBS briefly and blocked with 100 uL/well LI-COR blocking buffer for 1 hr at room temperature with gentle shaking. The cells were incubated overnight at 4° C. with 50 uL primary antibody rabbit anti-Phospho-Rb (Ser807/811) (1: 500, Cell Signaling, #8516) and anti-Rb (1:200, Santa Cruz, sc-73598) diluted in Intercept Blocking Buffer (LI-COR, #927-60001) containing 0.1% Tween 20. The next day, the cells were washed with 200 uL PBS containing 0.1% Tween 20, 5×5 mins at room temperature with gentle shaking, and incubated with 50 uL secondary antibody, IRDye® 800CW Goat anti-Rabbit IgG (1:1000, LI-COR, #926-32211) and IRDye®680RD Goat anti-Mouse IgG (1:1000, LI-COR, #926-68070), in LI-COR blocking buffer with 0.2% Tween 20 for 1 hr at room temperature with gentle shaking. The cells were washed with 200 uL PBS containing 0.1% Tween 20, 5×5 mins at room temperature with gentle shaking. The cells were washed with PBS for 5 mins. 100 uL fresh PBS was added to each well and the plates were imaged on a LI-COR Odyssey CLX plate reader.

[2] = test system: Phospho-Rb (Ser807/811) in SW1573-CDK6 KO cells; test: Phospho-Rb expression inhibition in SW1573-CDK6 KO cells quantified by in cell Western; assay type: cell-based; conditions: Homo sapiens, 24 hours, read-out: SW1573 CDK6 KO pRb IC50
Procedure: as §1, §2

| SMILES | IC50 [1] | IC50 [2] |
| --- | --- | --- |
| Cc1c(-c2nc(N[C@@H]3C[C@H]4CO[C@H](O4)[C@H]3O)ncc2F)sc2c(Cl)c(C(C)(C)O)cnc12 [Compound 276, (1S,3R,4S,5R)-3-((4-(7-chloro-6-(2-hydroxypropan-2-yl)-3-methylthieno[3,2-b]pyridin-2-yl)-5-fluoropyrimidin-2-yl)amino)-6,8-dioxabicyclo[3.2.1]octan-4-ol] | 150 to 1000 nM | ≤ 40 nM |
| Cc1c(-c2nc(N[C@@H]3C[C@H]4CO[C@H](O4)[C@H]3O)ncc2C(F)F)sc2c(C(C)C)cn(C)c(=O)c12 [Compound 227, 2-(5-(difluoromethyl)-2-(((1S,3R,4S,5R)-4-hydroxy-6,8-dioxabicyclo[3.2.1]octan-3-yl)amino)pyrimidin-4-yl)-7-isopropyl-3,5-dimethylthieno[3,2-c]pyridin-4(5H)-one] | 150 to 1000 nM | ≤ 40 nM |
| Cc1c(-c2nc(N[C@@H]3C[C@H]4CO[C@H](O4)[C@H]3O)ncc2Cl)sc2c(Cl)c(C(C)(C)O)cnc12 [Compound 275, (1S,3R,4S,5R)-3-((5-chloro-4-(7-chloro-6-(2-hydroxypropan-2-yl)-3-methylthieno[3,2-b]pyridin-2-yl)pyrimidin-2-yl)amino)-6,8-dioxabicyclo[3.2.1]octan-4-ol] | > 1000 nM | 40 to 150 nM |
| Cc1c(-c2nc(N[C@@H]3C[C@H]4CO[C@H](O4)[C@H]3O)ncc2Cl)sc2c(C)c(C(C)(C)O)cnc12 [Compound 277, (1S,3R,4S,5R)-3-((5-chloro-4-(6-(2-hydroxypropan-2-yl)-3,7-dimethylthieno[3,2-b]pyridin-2-yl)pyrimidin-2-yl)amino)-6,8-dioxabicyclo[3.2.1]octan-4-ol] | > 1000 nM | ≤ 40 nM |

Next, values leading:

| IC50 [1] | IC50 [2] | SMILES |
| --- | --- | --- |
| 150 to 1000 nM | ≤ 40 nM | CC(C)n1c([C@@H]2CC2(F)F)nc2c(F)cc(-c3nc(N[C@@H]4C[C@H]5CO[C@H](O5)[C@H]4O)ncc3Cl)cc21 [Compound 216, (1S,3R,4S,5R)-3-((5-chloro-4-(2-((S)-2,2-difluorocyclopropyl)-4-fluoro-1-isopropyl-1H-benzo[d]imidazol-6-yl)pyrimidin-2-yl)amino)-6,8-dioxabicyclo[3.2.1]octan-4-ol] |
| 150 to 1000 nM | ≤ 40 nM | Cc1c(CN2[C@@H](C)COC[C@@H]2C)n(C(C)C)c2cc(-c3nc(N[C@@H]4C[C@H]5CO[C@H](O5)[C@H]4O)ncc3Cl)ccc2c1=O [Compound 206, 7-(5-chloro-2-(((1S,3R,4S,5R)-4-hydroxy-6,8-dioxabicyclo[3.2.1]octan-3-yl)amino)pyrimidin-4-yl)-2-(((3S,5S)-3,5-dimethylmorpholino)methyl)-1-isopropyl-3-methylquinolin-4(1H)-one] |
| > 1000 nM | 40 to 150 nM | Cc1c(CN2CC(F)C2)n(C(C)C)c2cc(-c3nc(N[C@@H]4C[C@H]5CO[C@H](O5)[C@H]4O)ncc3F)ccc2c1=O [Compound 197, 7-(5-fluoro-2-(((1S,3R,4S,5R)-4-hydroxy-6,8-dioxabicyclo[3.2.1]octan-3-yl)amino)pyrimidin-4-yl)-2-((3-fluoroazetidin-1-yl)methyl)-1-isopropyl-3-methylquinolin-4(1H)-one] |
| 150 to 1000 nM | ≤ 40 nM | Cc1c(-c2nc(N[C@@H]3C[C@H]4CO[C@H](O4)[C@H]3O)ncc2Cl)sc2c(C(C)C)cnnc12 [Compound 259, (1S,3R,4S,5R)-3-((5-chloro-4-(4-isopropyl-7-methylthieno[3,2-c]pyridazin-6-yl)pyrimidin-2-yl)amino)-6,8-dioxabicyclo[3.2.1]octan-4-ol] |
| 150 to 1000 nM | ≤ 40 nM | Cc1c(CN2CC[C@H](F)C2)n(C(C)C)c2cc(-c3nc(N[C@@H]4C[C@H]5CO[C@H](O5)[C@H]4O)ncc3F)ccc2c1=O [Compound 293, 7-(5-fluoro-2-(((1S,3R,4S,5R)-4-hydroxy-6,8-dioxabicyclo[3.2.1]octan-3-yl)amino)pyrimidin-4-yl)-2-(((S)-3-fluoropyrrolidin-1-yl)methyl)-1-isopropyl-3-methylquinolin-4(1H)-one] |
